Legend:
Type in all cases: biochemical
PDGFR-β kinase = molecular target: T1, PDGFR-β kinase (Homo sapiens, UniProt P09619); assay: PDGFR-β kinase assay (33P incorporation into Poly(Glu-Tyr)); settings: 500 nM test compound
T1 construct: recombinant N-terminal 6×His-tagged PDGFR-β kinase domain construct expressed by baculovirus; 6xHis (N); made in house
In short: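 His-tagged PDGFR-β kinase domain (55 ng) with Poly(Glu-Tyr) 4:1, 30 μM ATP plus [33P]-γ-ATP, pH 7.0 MnCl2 buffer, and 500 nM compound for 30 min at 30° C. Filter-bound radioactivity counted; inhibition computed relative to DMSO control.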

VEGFR2 kinase = molecular target: T2, VEGFR2 kinase (Homo sapiens, UniProt P35968); assay: VEGFR2 kinase assay (33P incorporation into Poly(Glu-Tyr)); settings: 500 nM test compound; read-out: Inhibition at 500 nM (%) VEGFr-2
T2 construct: recombinant N-terminal 6×His-tagged VEGFR2 kinase domain construct expressed by baculovirus; 6xHis (N); made in house
In short: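 Recombinant baculovirus-expressed N-terminal His6-tagged VEGFR2 kinase domain (6.25 ng) phosphorylated poly(Glu-Tyr) 4:1 with 100 μM ATP plus [33P]-γ-ATP in MOPS pH 7.0, 30 °C, 30 min. Test compound was at 500 nM (4% DMSO). Filter-retained radioactivity relative to DMSO control gave % inhibition.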

c-Met kinase = molecular target: T3, c-Met kinase (Homo sapiens, UniProt P08581); assay: c-Met kinase assay (33P incorporation into Poly(Glu-Tyr)); settings: 500 nM test compound
T3 construct: recombinant N-terminal 6×His-tagged c-Met kinase domain construct expressed from baculovirus; 6xHis (N); made in house
In short: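 Recombinant N-terminal 6×His-tagged c-Met kinase domain (baculovirus-expressed, 5 ng) acted on Poly(Glu-Tyr) 4:1 with 100 μM ATP plus [33P]-γ-ATP in MOPS pH 7.0 buffer, 30 min at 30° C. Compound was at 500 nM. Filter-retained radioactivity was compared with the DMSO control to give percent inhibition.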

T2 sequence (P35968 834-1162 limits assumed): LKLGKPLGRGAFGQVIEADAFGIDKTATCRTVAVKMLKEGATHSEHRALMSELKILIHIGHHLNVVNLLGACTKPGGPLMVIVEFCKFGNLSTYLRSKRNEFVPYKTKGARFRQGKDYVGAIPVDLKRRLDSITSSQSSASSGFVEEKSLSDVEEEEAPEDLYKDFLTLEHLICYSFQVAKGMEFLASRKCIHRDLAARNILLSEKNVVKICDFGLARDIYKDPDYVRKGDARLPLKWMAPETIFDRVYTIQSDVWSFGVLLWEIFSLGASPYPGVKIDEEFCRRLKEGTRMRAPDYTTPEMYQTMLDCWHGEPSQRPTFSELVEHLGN
T1 sequence (P09619 600-962 limits assumed): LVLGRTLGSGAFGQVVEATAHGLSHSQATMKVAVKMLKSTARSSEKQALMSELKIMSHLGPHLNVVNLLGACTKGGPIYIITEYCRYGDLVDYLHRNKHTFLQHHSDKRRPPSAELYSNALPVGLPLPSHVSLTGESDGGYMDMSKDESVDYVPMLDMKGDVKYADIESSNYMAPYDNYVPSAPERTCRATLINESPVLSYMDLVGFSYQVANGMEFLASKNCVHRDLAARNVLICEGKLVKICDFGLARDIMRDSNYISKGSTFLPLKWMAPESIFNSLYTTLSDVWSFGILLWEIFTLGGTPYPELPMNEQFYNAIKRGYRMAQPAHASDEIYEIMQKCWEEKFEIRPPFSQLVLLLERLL
T3 sequence (P08581 1078-1345 limits assumed): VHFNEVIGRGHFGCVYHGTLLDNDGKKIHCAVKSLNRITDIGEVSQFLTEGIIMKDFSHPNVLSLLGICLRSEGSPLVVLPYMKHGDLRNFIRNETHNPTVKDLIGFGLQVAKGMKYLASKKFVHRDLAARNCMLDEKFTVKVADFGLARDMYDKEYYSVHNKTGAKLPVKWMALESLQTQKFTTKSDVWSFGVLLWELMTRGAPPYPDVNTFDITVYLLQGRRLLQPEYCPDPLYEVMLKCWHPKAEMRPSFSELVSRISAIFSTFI

| inhibition at 0.5 µM (PDGFR-β kinase) [%] | inhibition at 0.5 µM (VEGFR2 kinase) [%] | inhibition at 0.5 µM (c-Met kinase) [%] | Compound |
| --- | --- | --- | --- |
| 21.4 | 31.7 | -7.7 | CCOC(=O)CCc1c(/C=C2\C(=O)Nc3ccc(NC(=O)Nc4ccc(F)cc4)cc32)[nH]c2c1C(=O)CCC2 [DCB-70136, (Z)-ethyl 3-(2-((5-(3-(4-fluorophenyl)ureido)-2-oxoindolin-3-ylidene)methyl)-4-oxo-4,5,6,7-tetrahydro-1H-indol-3-yl)propanoate] |
| 11.5 | 82.9 | 11.5 | CCOC(=O)CCc1c(/C=C2\C(=O)Nc3ccc(NC(=O)Nc4ccc(Cl)c(C(F)(F)F)c4)cc32)[nH]c2c1C(=O)CCC2 [DCB-70137, (Z)-ethyl 3-(2-((5-(3-(4-chloro-3-(trifluoromethyl)phenyl)ureido)-2-oxoindolin-3-ylidene)methyl)-4-oxo-4,5,6,7-tetrahydro-1H-indol-3-yl)propanoate] |
| 7.5 | 27.6 | 9.3 | CCOC(=O)CCc1c(/C=C2\C(=O)Nc3ccc(NC(=O)c4ccc([N+](=O)[O-])cc4)cc32)[nH]c2c1C(=O)CCC2 [DCB-70140, (Z)-ethyl 3-(2-((5-(4-nitrobenzamido)-2-oxoindolin-3-ylidene)methyl)-4-oxo-4,5,6,7-tetrahydro-1H-indol-3-yl)propanoate] |
| 2.4 | 40.8 | 14.4 | CCOC(=O)CCc1c(/C=C2\C(=O)Nc3ccc(NS(=O)(=O)c4ccc(F)cc4)cc32)[nH]c2c1C(=O)CCC2 [DCB-70144, (Z)-ethyl 3-(2-((5-(4-fluorophenylsulfonamido)-2-oxoindolin-3-ylidene)methyl)-4-oxo-4,5,6,7-tetrahydro-1H-indol-3-yl)propanoate] |
| 14.5 | 66.6 | 12.5 | O=C(O)CCc1c(/C=C2\C(=O)Nc3ccc(NS(=O)(=O)c4ccc(F)cc4)cc32)[nH]c2c1C(=O)CCC2 [DCB-70145, (Z)-3-(2-((5-(4-fluorophenylsulfonamido)-2-oxoindolin-3-ylidene)methyl)-4-oxo-4,5,6,7-tetrahydro-1H-indol-3-yl)propanoic acid] |
| 19.7 | 59.7 | 20.9 | CCOC(=O)CCc1c(/C=C2\C(=O)Nc3ccc(NS(=O)(=O)c4ccccc4)cc32)[nH]c2c1C(=O)CCCC2 [DCB-70146, (Z)-ethyl 3-(4-oxo-2-((2-oxo-5-(phenylsulfonamido)indolin-3-ylidene)methyl)-1,4,5,6,7,8-hexahydrocyclohepta[b]pyrrol-3-yl)propanoate] |
| 17.3 | 71.3 | 0.2 | O=C(O)CCc1c(/C=C2\C(=O)Nc3ccc(NS(=O)(=O)c4ccccc4)cc32)[nH]c2c1C(=O)CCCC2 [DCB-70147, (Z)-3-(4-oxo-2-((2-oxo-5-(phenylsulfonamido)indolin-3-ylidene)methyl)-1,4,5,6,7,8-hexahydrocyclohepta[b]pyrrol-3-yl)propanoic acid] |

Reference: patent US7897602B2, “Indolinone compounds as kinase inhibitors” (Development Center for Biotechnology, priority 2009, dated 2011)
